What all share (test): ≥ marks a high value that may be exact or a test limit, other limits are often not marked, values filed in µg/mL are converted to µM
In assay [1] the test system is Bacillus subtilis.
Assay [2] deals with Enterococcus faecalis VR.
The test system of assay [3] is Escherichia coli.
The test system of assay [4] is Pseudomonas aeruginosa.
For assay [5], the system named is Salmonella typhimurium.
The subject of assay [6] is Staphylococcus aureus MR.
The test system of assay [7] is Staphylococcus aureus.
The subject of assay [8] is Staphylococcus epidermidis.
Assay [9] concerns Candida albicans C627.
Assay [10] has as its system Enterococcus faecium mic80.
Assay [11] has as its system Escherichia coli ESBL 63103.
The subject of assay [12] is Pseudomonas aeruginosa 213.
For assay [13], the system named is Pseudomonas aeruginosa H103.
The test system of assay [14] is Pseudomonas aeruginosa LES400.
Assay [15] relates to Staphylococcus aureus ATCC 25923.
For assay [16], the system named is Staphylococcus aureus C623.
Assay [17] concerns Candida albicans SC5314.
Assay [18] has as its system Candida krusei ATCC 6258.
For assay [19], the system named is Candida parapsilosis ATCC 22019.
The test system of assay [20] is Candida tropicalis ATCC 13803.
Assay [21] has as its system Candida albicans NCPF 1467.
The subject of assay [22] is Escherichia coli NCTC 10418.
The test system of assay [23] is Staphylococcus aureus ATCC 12493.
Assay [24] concerns Staphylococcus aureus NCTC 10788.
In assay [25] the test system is Aspergillus niger ATCC 16404.
Assay [26] concerns Candida albicans ATCC 10231.
Assay [27] deals with Candida glabrata ATCC 15126.
The test system of assay [28] is Enterococcus faecalis PCM 2673.
Assay [29] has as its system Escherichia coli ATCC 23506.
Assay [30] relates to Escherichia coli ATCC 25922.
The subject of assay [31] is Klebsiella pneumoniae ATCC 700603.
Assay [32] has as its system Pseudomonas aeruginosa ATCC 9027.
Assay [33] concerns Staphylococcus aureus ATCC 9144.
The test system of assay [34] is Streptococcus pneumoniae ATCC 49619.
Assay [35] relates to Pseudomonas aeruginosa ATCC 27853.
Assay [36] concerns Staphylococcus aureus ATCC 33592.
Assay [37] has as its system Staphylococcus aureus NCTC 8530.
Assay [38] deals with Escherichia coli 1.
Assay [39] concerns Escherichia coli C600.
The test system of assay [40] is Klebsiella pneumoniae 1.
In assay [41] the test system is Klebsiella pneumoniae 2.
Assay [42] concerns Pseudomonas aeruginosa 1.
In assay [43] the test system is Pseudomonas aeruginosa 2.
Assay [44] deals with Pseudomonas aeruginosa PAO1.
For assay [45], the system named is Staphylococcus aureus 209P.
In assay [46] the test system is Staphylococcus aureus ATCC 33591.

Molecules are shown by their SMILES. Converted amounts (≈) assume the structure as drawn. “And” between values parts separate entries of the source, which are not always exact repeats. Equal entries are not always repeated. A value given as a limit tells only on which side of the number the result lay.

For orientation: MIC means the lowest concentration found to suppress growth. Lower therefore signals inhibition by little substance. With `CC(C)C[C@H](NC(=O)CNC(=O)[C@H](C)NC(=O)[C@H](CCCN=C(N)N)NC(=O)[C@H](CO)NC(=O)[C@H](CO)NC(=O)[C@H](CCCN=C(N)N)NC(=O)[C@@H](N)[C@@H](C)O)C(=O)N[C@@H](CCC(N)=O)C(=O)N[C@@H](Cc1c[nH]c2ccccc12)C(=O)N1CCC[C@H]1C(=O)N[C@H](C(=O)NCC(=O)N[C@@H](CCCN=C(N)N)C(=O)N[C@H](C(=O)N[C@@H](Cc1cnc[nH]1)C(=O)N[C@@H](CCCN=C(N)N)C(=O)N[C@@H](CC(C)C)C(=O)N[C@@H](CC(C)C)C(=O)N[C@@H](CCCN=C(N)N)C(=O)N[C@@H](CCCCN)C(=O)O)C(C)C)C(C)C` [TRSSRAGLQWPVGRVHRLLRK], the MIC in [1] was found to be 0.5 µM (≈ 1.24 µg/mL); in [2], 1 µM (≈ 2.47 µg/mL); in assay [3], 1 µM (≈ 2.47 µg/mL); in assay [4], 2 µM (≈ 4.95 µg/mL); in [5], 0.5 µM (≈ 1.24 µg/mL); in assay [6], 0.707 µM (≈ 1.75 µg/mL). For the same molecule, the MIC amounted to 1 µM (≈ 2.47 µg/mL) in assay [7] and 2 µM (≈ 4.95 µg/mL) in [8].
`CC[C@H](C)[C@H](NC(=O)[C@H](Cc1c[nH]c2ccccc12)NC(=O)[C@H](CCCN=C(N)N)NC(=O)[C@H](Cc1c[nH]c2ccccc12)NC(=O)[C@H](Cc1c[nH]c2ccccc12)NC(=O)[C@H](CCCN=C(N)N)NC(=O)[C@H](CCCCN)NC(=O)[C@H](Cc1c[nH]c2ccccc12)NC(=O)[C@@H](N)CCCN=C(N)N)C(=O)O` [RWKRWWRWI]: the MIC in assay [9] was 2.72 µM (≈ 4 µg/mL); in assay [10], 21.7 µM (≈ 32 µg/mL); in assay [11] it was 10.9 µM (≈ 16 µg/mL); in assay [12], 21.7 µM (≈ 32 µg/mL); in [13], 2.72 µM (≈ 4 µg/mL); in assay [14] it was 21.7 µM (≈ 32 µg/mL). In addition, the results for the MIC in [15] and in [16] were 5.43 µM (≈ 8 µg/mL) and 2.72 µM (≈ 4 µg/mL), respectively.
With `NCCCC[C@H](NC(=O)[C@H](Cc1ccc(O)cc1)NC(=O)[C@H](CCCCN)NC(=O)[C@@H](N)CS)C(=O)N[C@@H](Cc1c[nH]c2ccccc12)C(=O)N[C@@H](CCCN=C(N)N)C(=O)O` [CKYKWR], the MIC was not below 113 µM in assay [17], not below 113 µM in [18], not below 113 µM in assay [19] and not below 56.6 µM in assay [20].
As to `CC(C)C[C@H](NC(=O)[C@H](CC(C)C)NC(=O)[C@H](CC(C)C)NC(=O)[C@@H]1CCCN1C(=O)[C@H](CC(C)C)NC(=O)[C@@H](N)Cc1ccccc1)C(=O)N[C@@H](C)C(=O)NCC(=O)N[C@@H](CC(C)C)C(=O)N1CCC[C@H]1C(=O)N[C@@H](CCCCN)C(=O)N[C@@H](Cc1ccccc1)C(=O)N[C@@H](CC(C)C)C(=O)N[C@H]1CSSC[C@@H](C(=O)O)NC(=O)[C@H](CCCCN)NC(=O)[C@H](CCCCN)NC(=O)[C@H](Cc2ccccc2)NC(=O)[C@H](C(C)C)NC(=O)[C@H](CC(C)C)NC1=O` [FLPLLLAGLPKFLCLVFKKC], the MIC in [21] was 16 µM (≈ 36.2 µg/mL); in assay [22], not below 512 µM; in assay [23] it was 16 µM (≈ 36.2 µg/mL); in assay [24], 16 µM (≈ 36.2 µg/mL).
For the molecule `CC[C@H](C)[C@H](NC(=O)CNC(=O)[C@H](CCCN=C(N)N)NC(=O)[C@@H](NC(=O)[C@H](CC(C)C)NC(=O)[C@H](CO)NC(=O)CNC(=O)[C@@H](NC(=O)[C@@H](N)CC(C)C)[C@@H](C)CC)C(C)C)C(=O)N[C@@H](CC(C)C)C(=O)N1CCC[C@H]1C(=O)N[C@@H](CC(C)C)C(=O)N[C@@H](Cc1ccccc1)C(N)=O` [LIGSLVRGILPLF], the MIC was not below 183 µM in assay [25]; 183 µM (≈ 256 µg/mL) in assay [26]; not below 183 µM in assay [27]; not below 183 µM in assay [28]; not below 183 µM in assay [29]; 183 µM (≈ 256 µg/mL) in [30]. Also, the MIC in assay [31] was 91.6 µM (≈ 128 µg/mL); in [32], 183 µM (≈ 256 µg/mL); in assay [15], 45.8 µM (≈ 64 µg/mL); in assay [33] it was not below 45.8 µM; in assay [34], not below 183 µM.
`CC[C@H](C)[C@H](NC(=O)[C@H](Cc1ccccc1)NC(=O)[C@H](CC(C)C)NC(=O)[C@H](CCCN=C(N)N)NC(=O)[C@@H](NC(=O)[C@H](CCCCN)NC(=O)[C@@H](NC(=O)[C@H](CC(C)C)NC(=O)[C@@H](N)C(C)C)[C@@H](C)CC)[C@@H](C)O)C(=O)N[C@@H](CCCCN)C(=O)N[C@@H](CCCN=C(N)N)C(=O)N[C@@H](CCCCN)C(=O)O` [VLIKTRLFIKRK]: the MIC in assay [35] was found to be 8 µM (≈ 12.1 µg/mL); in [36] it was 4 µM (≈ 6.06 µg/mL); in assay [37] it was 8 µM (≈ 12.1 µg/mL).
For `CC(C)[C@@H]1NC(=O)CNC(=O)[C@H](CCCN=C(N)N)NC(=O)[C@H](C(C)C)NC(=O)[C@H](CCCN=C(N)N)NC(=O)[C@H](C)NC(=O)[C@H](Cc2ccc(O)cc2)NC(=O)[C@H](C(C)C)NC(=O)[C@@H](NC(=O)[C@H](Cc2c[nH]c3ccccc23)NC(=O)[C@@H](N)CCCN=C(N)N)CSSC[C@@H](C(=O)N[C@@H](Cc2c[nH]c3ccccc23)C(=O)O)NC(=O)[C@H](CCCN=C(N)N)NC(=O)[C@H](CCCN=C(N)N)NC(=O)[C@H](Cc2ccc(O)cc2)NC(=O)[C@H](CCCN=C(N)N)NC1=O` [RWCVYARVRGVRYRRCW], the MIC in assay [38] was 1 µM and 0.5 µM; in [39], 1.56 µM (≈ 3.56 µg/mL); in [3], 1 µM (≈ 2.28 µg/mL); in [40], 1 µM and 2 µM; in assay [41], 2 µM (≈ 4.57 µg/mL); in [42] it was 2 µM and 4 µM. Moreover, the MIC in assay [43] came out at 4 µM (≈ 9.13 µg/mL); in [44], 6.25 µM (≈ 14.3 µg/mL); in [45], 1.56 µM (≈ 3.56 µg/mL); in assay [46] it was 0.06 µM (≈ 0.137 µg/mL).
